What is called IC50 is the concentration that gives 50% inhibition.

One experiment has as its target T1, KRas^G12D (Homo sapiens, UniProt P01116, G12D).
T1 construct: Biotinylated KRas (corresponding to amino acids 1-169, produced at Accelegan Inc.); biotin (biotinylated); purchased Accelegan Inc
In words: KRas TR-FRET tracer displacement binding assay, G12D. Conditions: 60-minute incubation. The protocol:
(§1) KRas^WT, KRas^G12A, KRas^G12C, KRas^G12D, KRas^G12R, KRas^G12S, KRas^G12V, KRas^G13D, or KRas^Q61H was used in the assay.
(§2) The ability of a compound to bind to KRas was measured using a TR-FRET displacement assay. Biotinylated KRas (corresponding to amino acids 1-169, produced at Accelegan Inc.) was incubated with custom made Cy5 labelled tracer, terbium streptavidin (Cisbio Inc.) and compound (1% DMSO final) in buffer (50 mM HEPES, pH 7.5, 5 mM MgCl2, 0.005% Tween-20 and 1 mM DTT). After a 60-minute incubation at room temperature, the reaction was measured using a BMG LABTECH CLARIO star Plus via TR-FRET.
In general terms: Time-resolved FRET reads energy transfer from a long-lived donor to a nearby acceptor.

The target in another experiment is T2, KRas^G12V (Homo sapiens, UniProt P01116, G12V).
T2 construct: Biotinylated KRas (corresponding to amino acids 1-169, produced at Accelegan Inc.); biotin (biotinylated); purchased Accelegan Inc
Nature of the experiment: KRas TR-FRET tracer displacement binding assay, G12V. Conditions: 60-minute incubation. The procedure:
as §1, §2

For the next experiment, the target named is T3, KRas^WT (Homo sapiens, UniProt P01116).
T3 construct: Biotinylated KRas (corresponding to amino acids 1-169, produced at Accelegan Inc.); biotin (biotinylated); purchased Accelegan Inc
In words: KRas TR-FRET tracer displacement binding assay, WT. Conditions: 60-minute incubation. The procedure: as §1, §2

The next experiment has as its target T4, KRas^G12C (Homo sapiens, UniProt P01116, G12C).
T4 construct: Biotinylated KRas (corresponding to amino acids 1-169, produced at Accelegan Inc.); biotin (biotinylated); purchased Accelegan Inc
Nature of the experiment: KRas TR-FRET tracer displacement binding assay, G12C. Conditions: 60-minute incubation. The protocol:
as §1, §2

The next experiment addresses T5, KRas^G12S (Homo sapiens, UniProt P01116, G12S).
T5 construct: Biotinylated KRas (corresponding to amino acids 1-169, produced at Accelegan Inc.); biotin (biotinylated); purchased Accelegan Inc
Nature of the experiment: KRas TR-FRET tracer displacement binding assay, G12S. Conditions: 60-minute incubation. The procedure:
as §1, §2

The test system of experiment [1] is KRas-mediated Phosphorylation of ERK in AsPC-1 cells. Nature of the experiment: Cisbio HTRF pERK assay, AsPC-1 cells. The class given is cell-based. Conditions: Homo sapiens, ASPC1, 3 h, 3 hrs compound, read-out: Inhibition (HTRF IC50 nM) of KRas-mediated Phosphorylation of ERK, AsPC-1.
Experiment [2] concerns KRas-mediated Phosphorylation of ERK in H727 cells. In words: Cisbio HTRF pERK assay, H727 cells. The class given is cell-based. Conditions: Homo sapiens, NCI-H727, 3 h, 3 hrs compound, read-out: Inhibition (HTRF IC50 nM) of KRas-mediated Phosphorylation of ERK, H727.
For experiment [3], the system named is KRas-mediated Phosphorylation of ERK in HCT116 cells. Nature of the experiment: Cisbio HTRF pERK assay, HCT116 cells. The class given is cell-based. Conditions: Homo sapiens, HCT-116, 3 h, HCT116 cells, 3 hrs compound; read-out: Inhibition (HTRF IC50 nM) of KRas-mediated Phosphorylation of ERK, HCT116.
Experiment [4] has as its system KRas-mediated Phosphorylation of ERK in A549 cells. Nature of the experiment: Cisbio HTRF pERK assay, A549 cells. It counts as cell-based. Conditions: Homo sapiens, A549, 3 h, A549 cells, 3 hrs compound; read-out: Inhibition (HTRF IC50 nM) of KRas-mediated Phosphorylation of ERK, A549.
Experiment [5] has as its system KRas-mediated Phosphorylation of ERK in H460 cells. In words: Cisbio HTRF pERK assay, H460 cells. Conditions: Homo sapiens, NCI-H460, 3 h, H460 cells, 3 hrs compound; read-out: Inhibition (HTRF IC50 nM) of KRas-mediated Phosphorylation of ERK, H460. It counts as cell-based.
Experiment [6] has as its system KRas-mediated Phosphorylation of ERK in H358 cells. In words: Cisbio HTRF pERK assay, H358 cells. It counts as cell-based. Conditions: Homo sapiens, NCI-H358, 3 h, H358 cells, 3 hrs compound; read-out: Inhibition (HTRF IC50 nM) of KRas-mediated Phosphorylation of ERK, H358.
Experiment [7] has as its system KRas-mediated Phosphorylation of ERK in PSN1 cells. Nature of the experiment: Cisbio HTRF pERK assay, PSN1 cells. The class given is cell-based. Conditions: Homo sapiens, PSN1, 3 h, 3 hour compound, read-out: Inhibition (HTRF IC50 nM) of KRas-mediated Phosphorylation of ERK, PSN1. The protocol: Inhibition of KRas Phosphorylation of ERK (HTRF) by Exemplary Compounds of Formula (I) • Cisbio HTRF Advanced pERK Assay Catalog #64AERPEH • Cell: MKN1, PSN1 • Procedure: • Day 1: Seed 6,000 cells/well −25 μl/well in 384-well white solid bottom plate; RPM1_10% FBS.

The test system of experiment [8] is KRas-mediated Phosphorylation of ERK in H2009 cells. In words: Cisbio HTRF pERK assay, H2009 cells. The class given is cell-based. Conditions: Homo sapiens, NCI-H2009, H2009 cells; read-out: Inhibition (HTRF IC50 nM) of KRas-mediated Phosphorylation of ERK, H2009.

T2 sequence (P01116 1-169 isoform P01116-2 G12V): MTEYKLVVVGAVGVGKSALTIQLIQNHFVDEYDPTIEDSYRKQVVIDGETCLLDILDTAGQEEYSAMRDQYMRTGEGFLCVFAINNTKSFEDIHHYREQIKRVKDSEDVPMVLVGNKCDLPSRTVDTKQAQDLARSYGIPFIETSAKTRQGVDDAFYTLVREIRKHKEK
T5 sequence (P01116 1-169 isoform P01116-2 G12S): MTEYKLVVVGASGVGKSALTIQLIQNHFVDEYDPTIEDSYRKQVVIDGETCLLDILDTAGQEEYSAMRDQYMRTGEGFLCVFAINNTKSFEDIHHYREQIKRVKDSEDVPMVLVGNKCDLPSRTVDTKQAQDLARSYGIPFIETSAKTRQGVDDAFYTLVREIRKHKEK
T3 sequence (P01116 1-169 isoform P01116-2): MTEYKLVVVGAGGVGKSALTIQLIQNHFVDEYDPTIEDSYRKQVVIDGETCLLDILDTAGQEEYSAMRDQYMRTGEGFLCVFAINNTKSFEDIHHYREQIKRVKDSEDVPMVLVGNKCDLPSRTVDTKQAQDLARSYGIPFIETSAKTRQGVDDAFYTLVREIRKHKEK
T1 sequence (P01116 1-169 isoform P01116-2 G12D): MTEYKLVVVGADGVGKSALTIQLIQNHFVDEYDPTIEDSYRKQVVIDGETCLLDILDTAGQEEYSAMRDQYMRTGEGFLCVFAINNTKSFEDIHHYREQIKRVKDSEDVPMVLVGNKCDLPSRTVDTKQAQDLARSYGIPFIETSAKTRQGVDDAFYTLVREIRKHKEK
T4 sequence (P01116 1-169 isoform P01116-2 G12C): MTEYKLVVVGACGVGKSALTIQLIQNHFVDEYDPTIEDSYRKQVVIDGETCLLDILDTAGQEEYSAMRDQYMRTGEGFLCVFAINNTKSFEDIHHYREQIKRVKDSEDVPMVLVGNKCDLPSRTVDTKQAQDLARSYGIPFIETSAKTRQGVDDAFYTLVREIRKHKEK

Take `N#Cc1c(N)sc2c(F)ccc(-c3c(C4CC4)cc4c(N5C[C@H]6CC[C@@H](C5)N6)nc(OC[C@@]56CCCN5C[C@H](F)C6)nc4c3F)c12` [Example 208, 4-(4-((1R,5S)-3,8-diazabicyclo[3.2.1]octan-3-yl)-6-cyclopropyl-8-fluoro-2-(((2R,7aS)-2-fluorotetrahydro-1H-pyrrolizin-7a(5H)-yl)methoxy)quinazolin-7-yl)-2-amino-7-fluorobenzo[b]thiophene-3-carbonitrile]: the IC50 at KRas^G12D is below 2 nM; at KRas^G12V, 10.4 nM; on KRas^WT, 4 nM; on KRas^G12C, 7 nM; on KRas^G12S, 4 nM; in experiment [1], 4 nM. In addition, the IC50 in experiment [2] was 3280 nM; in experiment [3], 90 nM; in experiment [4], 418 nM; in [5] it was 260 nM; in experiment [6], 167 nM; in experiment [7] it was 2390 nM.
As to `C=Cc1cc2c(N3CCCn4nc(C(=O)N(C)C)cc4C3)nc(OC[C@@]34CCCN3C[C@H](F)C4)nc2c(F)c1-c1ccc(F)c2sc(N)c(C#N)c12` [Example 176, 5-(7-(2-amino-3-cyano-7-fluorobenzo[b]thiophen-4-yl)-8-fluoro-2-(((2R,7aS)-2-fluorotetrahydro-1H-pyrrolizin-7a(5H)-yl)methoxy)-6-vinylquinazolin-4-yl)-N,N-dimethyl-5,6,7,8-tetrahydro-4H-pyrazolo[1,5-a][1,4]diazepine-2-carboxamide], the IC50 on KRas^G12D is below 2 nM; at KRas^G12V, below 2 nM; on KRas^WT it was below 2 nM; at KRas^G12C, below 2 nM; at KRas^G12S, below 2 nM; in experiment [1], 10 nM. The IC50 in [2] was 23 nM; in [3] it was 135 nM; in experiment [4], 72 nM; in [5], 101 nM; in [6], 8 nM.
Consider `N#Cc1c(N)sc2c(F)ccc(-c3c(Cl)cc4c(N5CCCCC(F)C5)nc(OC[C@@]56CCCN5C[C@H](F)C6)nc4c3F)c12` (stereo partly drawn) [Example 204, 2-amino-4-(6-chloro-8-fluoro-4-(3-fluoroazepan-1-yl)-2-(((2R,7aS)-2-fluorotetrahydro-1H-pyrrolizin-7a(5H)-yl)methoxy)quinazolin-7-yl)-7-fluorobenzo[b]thiophene-3-carbonitrile], for which the IC50 at KRas^G12D was 3 nM; on KRas^G12V, 3 nM; at KRas^WT, 2 nM; on KRas^G12C, 3 nM; on KRas^G12S it was below 2 nM; in experiment [1], 16 nM. Besides, the IC50 in [2] amounted to 18 nM; in [3], 25 nM; in [4] it was 34 nM; in experiment [5], 23 nM; in experiment [6], 6 nM; in [7], 1180 nM.
For `CN(c1nc(OC[C@@]23CCCN2C[C@H](F)C3)nc2c(F)c(-c3ccc(F)c4sc(N)c(C#N)c34)c(Cl)cc12)[C@H]1C[C@@H]1F` [Example 202, 2-amino-4-(6-chloro-8-fluoro-4-(((1S,2S)-2-fluorocyclopropyl)(methyl)amino)-2-(((2R,7aS)-2-fluorotetrahydro-1H-pyrrolizin-7a(5H)-yl)methoxy)quinazolin-7-yl)-7-fluorobenzo[b]thiophene-3-carbonitrile], the IC50 in [1] was 200 nM; in experiment [2], 104 nM; in experiment [3], 498 nM; in experiment [4], 200 nM; in experiment [5] it was 145 nM; in [6], 63 nM. Besides, the IC50 in experiment [8] was determined as 24 nM; in [7], 3350 nM.
Take `CN(C)C(=O)c1cc2n(n1)CCCN(c1nc(OC[C@@]34CCCN3C[C@H](F)C4)nc3c(F)c(-c4ccc(F)c5sc(N)c(C#N)c45)c(C4CC4)cc13)C2` [Example 207, 5-(7-(2-amino-3-cyano-7-fluorobenzo[b]thiophen-4-yl)-6-cyclopropyl-8-fluoro-2-(((2R,7aS)-2-fluorotetrahydro-1H-pyrrolizin-7a(5H)-yl)methoxy)quinazolin-4-yl)-N,N-dimethyl-5,6,7,8-tetrahydro-4H-pyrazolo[1,5-a][1,4]diazepine-2-carboxamide]: the IC50 was 2 nM on KRas^G12D; below 2 nM at KRas^G12V; below 2 nM at KRas^WT; below 2 nM on KRas^G12C; below 2 nM on KRas^G12S; 3 nM in experiment [1]. Moreover, the IC50 in [2] is 11 nM; in experiment [3], 42 nM; in experiment [4] it was 22 nM; in experiment [5], 34 nM; in experiment [6] it was 3 nM; in [7], 811 nM.
On to `C[C@@]1(O)CCCN(c2nc(OC[C@@]34CCCN3C[C@H](F)C4)nc3c(F)c(-c4ccc(F)c5sc(N)c(C#N)c45)c(F)cc23)C1` [Example 198, 2-amino-4-(6,8-difluoro-2-(((2R,7aS)-2-fluorotetrahydro-1H-pyrrolizin-7a(5H)-yl)methoxy)-4-((R)-3-hydroxy-3-methylpiperidin-1-yl)quinazolin-7-yl)-7-fluorobenzo[b]thiophene-3-carbonitrile], for which the IC50 at KRas^G12D came to 9 nM; at KRas^G12V, 13 nM; at KRas^WT it was 7 nM; on KRas^G12C, 12 nM; on KRas^G12S, 11 nM; in experiment [1] it was 253 nM. The IC50 came to 717 nM in experiment [2]; 275 nM in experiment [3]; 326 nM in experiment [4]; 170 nM in [5]; 125 nM in experiment [6].
Take `N#Cc1c(N)sc2c(F)ccc(-c3c(Cl)cc4c(N5CCCOCC5)nc(OC[C@@]56CCCN5C[C@H](F)C6)nc4c3F)c12` [Example 211, 2-amino-4-(6-chloro-8-fluoro-2-(((2R,7aS)-2-fluorotetrahydro-1H-pyrrolizin-7a(5H)-yl)methoxy)-4-(1,4-oxazepan-4-yl)quinazolin-7-yl)-7-fluorobenzo[b]thiophene-3-carbonitrile]: the IC50 was 3 nM at KRas^G12D; 2 nM at KRas^G12V; below 2 nM on KRas^WT; below 2 nM at KRas^G12C; below 2 nM on KRas^G12S; 22 nM in [1]. Also, the IC50 came to 12 nM in experiment [2]; 18 nM in experiment [3]; 15 nM in experiment [4]; 13 nM in [5]; 3 nM in experiment [6]; 1270 nM in [7].
In the case of `N#Cc1c(N)sc2c(F)ccc(-c3c(Cl)cc4c(NCCS(N)(=O)=O)nc(OC[C@@]56CCCN5C[C@H](F)C6)nc4c3F)c12` [Example 201, 2-((7-(2-amino-3-cyano-7-fluorobenzo[b]thiophen-4-yl)-6-chloro-8-fluoro-2-(((2R,7aS)-2-fluorotetrahydro-1H-pyrrolizin-7a(5H)-yl)methoxy)quinazolin-4-yl)amino)ethane-1-sulfonamide], the IC50 came out at 3 nM on KRas^G12D; 3 nM at KRas^G12V; 3 nM on KRas^WT; 3 nM at KRas^G12C; 2 nM on KRas^G12S; 4690 nM in [1]. Besides, the IC50 in experiment [2] is above 10000 nM; in [3], above 10000 nM; in experiment [4], above 10000 nM; in experiment [5], 5340 nM; in experiment [6], 1780 nM; in experiment [7], above 10000 nM.
